The nature of data set [1]: Toxicity by repetitive oral administration. The format is in vivo, SD rat. The following applies: 32 mg/kg once a day orally, 14 consecutive days.
For another data set, the target named is T1, cGMP-PDE (Homo sapiens, UniProt O76074).
T1 construct: cGMP-PDE was separated from other isozymes in human platelets; from tissue; host or cells: human platelets
The experiment in a line: cGMP-phosphodiesterase (PDE) Assay (human platelets). In kind it is biochemical. The protocol: cGMP-phosphodiesterase (PDE) Assay
cGMP-PDE was separated from other isozymes in human platelets by a modification of the method of Thompson et. al. (Cyclic Nucleotide Phosphodiesterase (PDE), in Methods of Enzymatic analysis, Vol 4, p127-234, 1984). In enzyme inhibition assays, the test compounds were dissolved in 10% DMSO and then diluted with assay buffer (50 mM Tris-HCl, pH 8.0, 0.1 mM dithiothreitol, 2 mM EGTA and 10 u/ml snake venom), at final concentrations ranging from 10^-10 to 10^-6 M. Assays were performed at 0.1 μM substrate ([^3 H]-cGMP) concentration, at 30° C. for 10 minutes using enzyme dilutions which gave 10-20% hydrolysis of substrate. Each assay was initiated by addition of substrate and terminated by addition of anion exchange resin (Dowex 1-X8, 25 μg/mg) followed by centrifugation for 10 minutes (3000 rpm, at 4° C.). Radioactivity of supernatant (^3 H-GMP) was assayed by liquid scintillation counting.

The test system of data set [2] is Vascular smooth muscle cells (vSMCs). The experiment in a line: vSMC Proliferation ([3H]-thymidine, PDGF-stimulated). The format is cell-based, male Wistar rats. As to conditions: Rattus norvegicus, PDGF 10 ng/ml stimulation. As to the method: Vascular smooth muscle cells (vSMCs) were prepared from explants of the thoracic aorta of 10 week old male Wistar rats by a modification of the method of Ross (J. Cell Biol., 50: 172, 1971). They were cultured in DMEM containing 10% fetal calf serum, 1% penicillin G and 1% streptomycin at 37° C. in a 95% air, 5% CO2 humidified atmosphere. vSMCs were seeded in 24 well plates and cultured in the presence of 10% fetal calf serum for 3 days. Cell growth then was arrested by transfer to serum free DMEA. After 24 hours, each test compound or vehicle was added to medium for 1 hour, and then cells were stimulated by PDGF (10 ng/ml). After 24 hours of additional incubation, [^3 H]-thymidine (1 μCi/ml) was added during the final 4 hours of incubation time, and trichloracetic acid insoluble radioactivity was assayed by liquid scintillation counting.

For data set [3], the system named is aorta (spirally cut strips). The data set can be described thus: Smooth Muscle Relaxant: noradrenaline-contracted rat aorta strips. Set-up: species or system male Wistar rats. The following applies: contraction by noradrenaline 1 μM, 37° C. The protocol: The aorta were carefully removed from male Wistar rats, cleaned of fat and extraneous tissue. Spirally cut strips of the aorta were placed in a 25 ml organ bath containing Tyrode solution of the following composition (mM); NaCl, 137; KCl, 2.7; CaCl2, 1.8; NaH2 PO4, 0.4; NaHCO3, 12.0; MgSO4, 1.1; glucose, 5.6. The bath was maintained at 37° C. and bubbled with 95% O2 and 5% CO2. The spirally cut strip was stretched to a resting force of 1.0 g, and the isometric contraction was recorded via a force development transducer on an ink writing recorder. Tissues were equilibrated for 60 minutes before contraction was induced by noradrenaline (NA, 1 μM). The test compounds were cumulatively added to organ bath in increasing concentrations ranging from 10^-8 to 10^-5 M, after maximum stable constriction to NA had been achieved.

Data set [4] has as its system Genital Grooming and Penile Erection. The experiment in a line: Effect on Genital Grooming and Penile Erection in Male Mice. The following applies: oral; observed for one hour; n=10. In kind it is in vivo, male ICR mice. As to the method:
(d) Effect of Tested Compound on Genital Grooming and Penile Erection in Male Mice
Eight weeks old male ICR mice were housed under standard conditions of temperature, lighting and water supply before the experiment.
The test compound was dissolved in PEG400. After oral administration of the test compound, each mouse was transferred to an individual cage.

pIC50: −log10 of the molar value.

What is called pIC50 is the negative decadic logarithm of the IC50, by convention in mol/L. High values mean a small IC50, low ones a large IC50.

Consider `CCCc1c(C(=O)COC)c2ccc(C(N)=O)cc2n1Cc1cc2c(cc1Cl)OCO2` [Example 27-(8), 1-(6-Chloro-3,4-methylenedioxybenzyl)-3-methoxyacetyl-2-propylindole-6-carboxamide], for which, in data set [1], the “death on repetitive oral administration” value is recorded as “the dead at dose of 32 mg/kg once a day for 14 consecutive days could not be observed”. Also, the pIC50 (on cGMP-PDE; in data set [2]; in data set [3]) was above 7.00 each time. Besides, the “increase of the frequencies of genital grooming (average)” value in data set [4] is reported as 266%. Besides, the “lengthening of the duration of penile erection (average)” value in data set [4] worked out at 171%.

The record behind these values is patent publication US6069156A, “Indole derivatives as cGMP-PDE inhibitors” (Fujisawa Pharmaceutical Co., Ltd., priority 1995, dated 2000).
